The text below walks through data of patent US11384065B2, “Heterocyclic compound as CSF-1R inhibitor and use thereof” (MEDSHINE DISCOVERY INC., priority 2018, dated 2022).

As usually defined, the IC50 is the point on the concentration scale where inhibition reaches its midpoint. Low readings indicate higher potency, high ones lower potency. The term AUC(0-t) denotes the area under the concentration-time curve up to a stated or last time point. For orientation: half-life means the time needed for the level to fall by half in the phase considered. As a reminder, the Cmax is the highest concentration seen after dosing.

In data set [1] the target is CSF-1R (Homo sapiens (Human), UniProt P07333). Kind of data set: In vitro inhibitory activity on CSF-1R kinase (33P-ATP filter-binding, Reaction Biology Corporation). The class given is biochemical. The following applies: CSF-1R 2.5 nM, filter-binding method. As to the method: Experimental Example 1: In Vitro Inhibitory Activity of the Compounds of the Present Invention on CSF-1R in Terms of Enzymology The compounds of the present invention for experiments were made in house, and their structural formulas were shown in the preparation examples of each compound. The experimental tests were conducted at Reaction Biology Corporation in the United States, and the experimental results were provided by the company. Experimental Reagents: Necessary reaction buffer: 20 mM hydroxyethylpiperazine ethanesulfonic acid (pH 7.5), 10 mM magnesium chloride, 1 mM EGTA, 0.02% Brij35, 0.02 mg/mL bovine serum albumin, 0.1 mM Na3VO4, 2 mM DTT, 1% DMSO. The necessary cofactors were added separately to the CSF-1R kinase reaction. Enzyme: the concentration of CSF-1R was 2.5 nM Treatment with the Compounds: The compound to be tested was formulated with 100% DMSO into a solution with a specific concentration, and serial dilution was performed with DMSO through the intelligent pipetting assistant Integra Viaflo Assist. Experimental Procedure: […] All necessary cofactors were added to the above reaction buffer; CSF-1R kinase was added to the above matrix solution and shaken gently; Using acoustic technology (Echo550; nanoliter range), a solution of the compound in DMSO was added to the above kinase reaction mixture, and the reaction solution was incubated at room temperature for 20 minutes; ^33P-ATP (specific activity, 10 μCi/μl) was added to the above kinase reaction mixture to initiate the reaction; The reaction solution was incubated at room temperature for 2 hours; The kinase activity was detected by the filter-binding method; The kinase activity was the ratio of the remaining kinase in the test sample to the vehicle (DMSO) group. IC50 values and profiles were obtained using Prism (GraphPad software).
CSF-1R, sequence (P07333 20-972): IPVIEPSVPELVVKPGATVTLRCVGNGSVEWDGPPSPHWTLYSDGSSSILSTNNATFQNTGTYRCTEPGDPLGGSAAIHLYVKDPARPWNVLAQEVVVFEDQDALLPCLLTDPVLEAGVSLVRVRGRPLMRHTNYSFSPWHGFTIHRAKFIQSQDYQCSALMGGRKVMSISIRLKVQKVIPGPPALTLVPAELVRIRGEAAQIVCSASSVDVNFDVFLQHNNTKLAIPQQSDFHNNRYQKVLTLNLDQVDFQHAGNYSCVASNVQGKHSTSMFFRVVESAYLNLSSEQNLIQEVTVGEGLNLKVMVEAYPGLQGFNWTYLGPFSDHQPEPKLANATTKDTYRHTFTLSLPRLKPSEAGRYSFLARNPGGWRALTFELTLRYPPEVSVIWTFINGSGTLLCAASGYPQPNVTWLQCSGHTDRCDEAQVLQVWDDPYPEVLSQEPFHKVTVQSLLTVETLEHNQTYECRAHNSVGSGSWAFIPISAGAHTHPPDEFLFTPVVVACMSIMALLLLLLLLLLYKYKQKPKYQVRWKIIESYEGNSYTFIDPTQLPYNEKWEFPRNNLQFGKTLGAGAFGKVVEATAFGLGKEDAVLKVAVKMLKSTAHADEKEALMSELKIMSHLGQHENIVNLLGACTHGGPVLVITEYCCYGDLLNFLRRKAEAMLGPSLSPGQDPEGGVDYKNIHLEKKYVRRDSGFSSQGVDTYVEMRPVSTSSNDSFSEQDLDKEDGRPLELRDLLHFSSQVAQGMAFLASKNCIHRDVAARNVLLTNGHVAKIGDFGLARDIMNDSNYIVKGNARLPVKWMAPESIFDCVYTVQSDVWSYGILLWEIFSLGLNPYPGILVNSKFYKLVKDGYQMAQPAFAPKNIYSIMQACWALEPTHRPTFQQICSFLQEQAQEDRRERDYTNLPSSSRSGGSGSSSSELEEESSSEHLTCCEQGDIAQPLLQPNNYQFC

Data set [2] is described as follows: Pharmacokinetic study after intravenous injection and oral administration (plasma, LC-MS/MS). The following applies: for AUC(0-t) / C0 / Vd / clearance / half-life / Cmax: male, SD, rat, plasma. It counts as in vivo, rats. From the text:
Example 2 Pharmacokinetic Study on Mice and Rats (PK)
The purpose of this experiment was to study the pharmacokinetics of the test article in the plasma of male C57BL/6J mice and SD rats after intravenous injection and oral administration.
The animals were randomly divided into two groups with 2 males in each group. The compounds were formulated into prescribed preparations. Preparations for intravenous injection were clear solutions, and oral preparations could be clear or homogeneous suspensions.
Whole blood samples were collected from the jugular vein puncture or saphenous vein of the animals 5 minutes, 15 minutes, 30 minutes, 1 hour, 2 hours, 4 hours, 6 hours, and 8 hours after administration. The whole blood sample was added to the centrifuge tube containing anticoagulant, and centrifuged at 3000 g for 15 minutes at 4° C. The supernatant of plasma was taken, frozen quickly on dry ice, and then stored in a −70° C.±10° C. refrigerator until LC-MS/MS analysis.
WinNonlin™ Version 6.3.0 (Pharsight, Mountain View, Calif.) pharmacokinetic software was used to process the plasma drug concentration data of the compounds with a non-compartmental model. The peak concentration (Cmax), peak time (Tmax) and quantifiable end time were obtained directly from the blood drug concentration-time profile.
The following pharmacokinetic parameters were calculated using the log-linear trapezoid method: Plasma clearance rate (CL), volume of distribution (Vd), elimination phase half-life (T1/2), average residence time of drug in the body from 0 to the end time point (MRT0-last), average residence time of the drug in the body from 0 to infinite time (MRT0-inf), area under the time-plasma concentration curve from 0 to the end time point (AUC0-last), area under the time-plasma concentration curve from 0 to infinite time (AUC0-inf) and bioavailability (F), C0 was the initial concentration.

Consider `CNc1ccc(-c2cnc(Nc3cnc(OC4CC4)cn3)cc2C)c2c1C(=O)NC2` [Compound 19], for which the IC50 in data set [1] is 2.55 nM. This counts as single-digit nanomolar. In data set [1], `CNc1ccc(-c2cnc(NCc3ccc(C(F)(F)F)nc3)cc2C)c2c1C(=O)NC2` [Compound 4] registered an IC50 of 1.27 nM.

As for `CNc1ccc(-c2cnc(Nc3ccc(C4CC4)nc3)cc2C)c2c1C(=O)NC2` [Compound 15], the 50% inhibitory concentration (IC50) in data set [1] worked out at 0.82 nM.

In data set [1], `CNc1ccc(-c2cnc(Nc3ccc(OC4CC4)nc3)cc2C)c2c1C(=O)NC2` [Compound 5] displayed an IC50 of 1.68 nM. On the same count and under the same terms, to `CNc1ccc(-c2cnc(Nc3ccc(OC(F)F)nc3)cc2C)c2c1C(=O)NC2` [Compound 8] belongs 4.98 nM; to `Cc1cc(NCc2ccc(C(F)(F)F)nc2)ncc1-c1ccc(N)c2c1CNC2=O` [Compound 2], 1.55 nM. In data set [1], `CCOc1ccc(Nc2cc(C)c(-c3ccc(NC)c4c3CNC4=O)cn2)cn1` [Compound 7] had an IC50 of 1.87 nM.

Consider `CNc1ccc(-c2cnc(Nc3cnc(OC4CC4)nc3)cc2C)c2c1C(=O)NC2` [Compound 16], for which, in data set [1], the IC50 came to 2.49 nM. The same measure, in the same setting: in the case of `CNc1ccc(-c2cnc(Nc3cnc(C4CC4)cn3)cc2C)c2c1C(=O)NC2` [Compound 12] it was 1.89 nM. `COc1ccc(-c2ccc(NC(=O)Nc3cccc(C)c3)cc2)c2c1C(=O)NC2` [Control compound, reference compound]: the F in data set [2] (PO (10 mpk)) is reported as 3.92%. In data set [2] (1 mg/kg, IV (1 mpk)), this compound showed an AUC(0-t) of 0.918 µM·h, a C0 of 3.72 µM, a Vd of 1.48 L/kg and a clearance of 46.7 mL/min/kg. For the same compound, the half-life in data set [2] (1 mg/kg, IV (1 mpk)) is 0.92 h. In data set [2] (10 mg/kg, PO (10 mpk)), this compound displayed an AUC(0-t) of 0.333 µM·h and a Cmax of 0.104 µM. `CNc1ccc(-c2cnc(Nc3ccc(OC4CC4)nn3)cc2C)c2c1C(=O)NC2` [Compound 18] registered an IC50 in data set [1] of 3.43 nM. In turn, `CNc1ccc(-c2cnc(Nc3ccc(OC4CC4)cn3)cc2C)c2c1C(=O)NC2` [Compound 17] came in with an IC50 in data set [1] of 4.15 nM. On to `CNc1ccc(-c2cnc(Nc3ccc(C4CC4)cn3)cc2C)c2c1C(=O)NC2` [Compound 14], for which the 50% inhibitory concentration (IC50) in data set [1] was 2.5 nM.

`CNc1ccc(-c2cnc(Nc3ncc(C4CC4)cn3)cc2C)c2c1C(=O)NC2` [Compound 13] came in with an IC50 in data set [1] of 3.78 nM. `CNc1ccc(-c2cnc(Nc3cnc(C4CC4)nc3)cc2C)c2c1C(=O)NC2` [Compound 10] came in with an IC50 in data set [1] of 2.61 nM. The same compound displayed a F in data set [2] (PO (10 mpk)) of 106%. In data set [2] (1 mg/kg, IV (1 mpk)), the AUC(0-t) worked out at 18.7 µM·h, the C0 stood at 6.29 µM, the Vd stood at 0.495 L/kg and the clearance worked out at 2.31 mL/min/kg. The compound further gave a half-life in data set [2] (1 mg/kg, IV (1 mpk)) of 2.53 h. In data set [2] (10 mg/kg, PO (10 mpk)), the AUC(0-t) worked out at 198 µM·h and the Cmax is 33 µM. `CNc1ccc(-c2cnc(Nc3ccc(N(C)C)nc3)cc2C)c2c1C(=O)NC2` [Compound 9] displayed an IC50 in data set [1] of 1.41 nM. That is a single-digit nanomolar value.

In the case of `CNc1ccc(-c2cnc(Nc3ccc(C4CC4)nn3)cc2C)c2c1C(=O)NC2` [Compound 11], in data set [1], the IC50 was 4.71 nM. This IC50 lies about 3.3-fold higher than the previous one.

The compound `CNc1ccc(-c2cnc(Nc3ccc(C4(C#N)CC4)nc3)cc2C)c2c1C(=O)NC2` [Compound 6] returned an IC50 in data set [1] of 5.01 nM. On the same count and under the same terms, in the case of `Cc1cc(NCc2ccc(C(F)(F)F)nc2)ncc1-c1ccc(N(C)C)c2c1CNC2=O` [Compound 1] it was 3.06 nM; in that of `CNc1ccc(-c2cnc(Nc3ccn(C4CC4)c(=O)c3)cc2C)c2c1C(=O)NC2` [Compound 20], 12.1 nM; in that of `CC(=O)Nc1ccc(-c2cnc(NCc3ccc(C(F)(F)F)nc3)cc2C)c2c1C(=O)NC2` [Compound 3], 24.5 nM.
